Measured values taken from ChEMBL document CHEMBL2429823, “Synthesis and biological evaluation of novel 3,4-diaryl lactam derivatives as triple reuptake inhibitors” (Bioorg Med Chem Lett, 2013).

Assays:
[1] = target: T1, Sodium-dependent noradrenaline transporter (Homo sapiens, UniProt P23975); assay: Displacement of [3H]Nisoxetine from human recombinant NET over-expressed in dog MDCK cells at 10 uM; assay type: cell-based
[2] = target: T2, Sodium-dependent dopamine transporter (Homo sapiens, UniProt Q01959); assay: Displacement of [3H]Win35428 from human recombinant DAT over-expressed in CHOK1 cells at 10 uM; assay type: cell-based; conditions: CHO-K1
[3] = target: T2, Sodium-dependent dopamine transporter; assay: biochemical
[4] = target: T3, Sodium-dependent serotonin transporter (Homo sapiens, UniProt P31645); conditions: HEK293, at 10 µM
Target sequence in this assay (P31645 whole entry, looked up): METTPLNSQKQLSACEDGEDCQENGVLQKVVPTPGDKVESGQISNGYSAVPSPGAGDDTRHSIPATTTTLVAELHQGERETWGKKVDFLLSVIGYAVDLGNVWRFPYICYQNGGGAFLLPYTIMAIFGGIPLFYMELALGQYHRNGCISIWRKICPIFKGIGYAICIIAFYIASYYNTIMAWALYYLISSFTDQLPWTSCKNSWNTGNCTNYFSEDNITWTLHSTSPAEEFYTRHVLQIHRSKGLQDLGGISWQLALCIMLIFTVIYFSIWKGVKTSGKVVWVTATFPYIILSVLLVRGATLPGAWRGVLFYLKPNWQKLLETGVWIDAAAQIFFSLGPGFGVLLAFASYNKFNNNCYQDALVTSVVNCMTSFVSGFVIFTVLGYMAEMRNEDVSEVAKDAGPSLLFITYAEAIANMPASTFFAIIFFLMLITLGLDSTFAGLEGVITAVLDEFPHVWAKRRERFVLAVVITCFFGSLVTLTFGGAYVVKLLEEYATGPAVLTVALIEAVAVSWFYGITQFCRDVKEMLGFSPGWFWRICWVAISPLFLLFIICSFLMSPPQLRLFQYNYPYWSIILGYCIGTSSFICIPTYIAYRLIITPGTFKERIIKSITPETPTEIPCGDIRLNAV
Description: Inhibition of human SERT-mediated serotonin uptake expressed in HEK293 cells at 10 uM after 15 mins by fluorescence plate reader analysis

[5] = target: T1, Sodium-dependent noradrenaline transporter; assay: biochemical
[6] = target: T3, Sodium-dependent serotonin transporter; assay: Displacement of [3H]imipramin from human recombinant SERT over-expressed in HEK293 cells at 10 uM; assay type: cell-based
Target sequence in this assay (P31645 whole entry, looked up): as above

[7] = target: T3, Sodium-dependent serotonin transporter; assay: biochemical; assay type: cell-based, HEK293
Target sequence in this assay (P31645 whole entry): as the sequence (P31645 whole entry, looked up) above

T1 sequence (P23975 whole entry): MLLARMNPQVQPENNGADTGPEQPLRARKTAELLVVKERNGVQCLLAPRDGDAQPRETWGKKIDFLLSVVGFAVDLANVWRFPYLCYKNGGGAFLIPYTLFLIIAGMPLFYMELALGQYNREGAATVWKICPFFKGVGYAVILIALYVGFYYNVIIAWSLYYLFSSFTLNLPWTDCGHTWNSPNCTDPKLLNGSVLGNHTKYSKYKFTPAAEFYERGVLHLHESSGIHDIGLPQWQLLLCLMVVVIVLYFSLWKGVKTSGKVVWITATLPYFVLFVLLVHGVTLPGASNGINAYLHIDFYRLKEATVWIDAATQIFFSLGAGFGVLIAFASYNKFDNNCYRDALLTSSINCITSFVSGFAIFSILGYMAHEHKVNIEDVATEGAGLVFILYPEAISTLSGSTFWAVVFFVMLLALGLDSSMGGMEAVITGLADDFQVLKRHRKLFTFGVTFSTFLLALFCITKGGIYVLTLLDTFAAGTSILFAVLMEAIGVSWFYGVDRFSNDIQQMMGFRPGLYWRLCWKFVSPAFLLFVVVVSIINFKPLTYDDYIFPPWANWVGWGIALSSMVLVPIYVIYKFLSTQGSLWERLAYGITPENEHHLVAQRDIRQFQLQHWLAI
T2 sequence (Q01959 whole entry): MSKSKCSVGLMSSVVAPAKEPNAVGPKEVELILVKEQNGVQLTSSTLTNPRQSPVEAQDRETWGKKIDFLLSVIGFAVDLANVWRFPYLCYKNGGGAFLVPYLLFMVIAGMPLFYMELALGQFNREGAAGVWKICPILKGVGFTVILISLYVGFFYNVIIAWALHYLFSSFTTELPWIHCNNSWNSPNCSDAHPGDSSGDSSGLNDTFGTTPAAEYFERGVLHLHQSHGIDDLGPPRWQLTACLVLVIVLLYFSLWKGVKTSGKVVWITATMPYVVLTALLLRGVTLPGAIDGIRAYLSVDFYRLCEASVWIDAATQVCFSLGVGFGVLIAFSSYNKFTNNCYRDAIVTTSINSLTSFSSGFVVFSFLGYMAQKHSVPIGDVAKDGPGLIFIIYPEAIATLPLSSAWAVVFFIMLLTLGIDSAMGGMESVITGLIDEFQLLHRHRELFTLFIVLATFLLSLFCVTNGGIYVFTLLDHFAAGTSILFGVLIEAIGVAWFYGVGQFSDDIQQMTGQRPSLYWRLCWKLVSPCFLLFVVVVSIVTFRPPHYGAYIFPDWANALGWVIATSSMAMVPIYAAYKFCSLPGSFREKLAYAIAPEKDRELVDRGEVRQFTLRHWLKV

## O=C1NCC(c2ccc(Cl)c(Cl)c2)C1c1cccc(Cl)c1 (configuration not stated)
[1]
  inhibition: 93%
[2]
  inhibition: 87%
[3]
  IC50: 41.7 nM
[4]
  inhibition: 20.4%
[5]
  IC50: 384 nM
[6]
  inhibition: 57%

## O=C1NCC(c2ccc(Cl)cc2)C1c1ccccc1 (configuration not stated)
[1]
  inhibition: 50%
[2]
  inhibition: 99%
[3]
  IC50: 32.7 nM
[4]
  inhibition: 30.8%
[6]
  inhibition: 20%

## O=C1NCC(c2ccc(Cl)c(Cl)c2)C1c1ccccc1 (configuration not stated)
[1]
  inhibition: 87%
[2]
  inhibition: 83%
[3]
  IC50: 36.6 nM
[4]
  inhibition: 29.4%
[5]
  IC50: 866 nM
[6]
  inhibition: 49%

## O=C1NCC(c2ccc(Cl)cc2)C1c1ccc(Cl)cc1 (configuration not stated)
[1]
  inhibition: 75%
[2]
  inhibition: 99%
[3]
  IC50: 179 nM
[4]
  inhibition: 58.1%
[5]
  IC50: 5180 nM
[6]
  inhibition: 84%
[7]
  IC50: 99.2 nM

## O=C1NCC(c2ccc(Cl)c(Cl)c2)C1c1ccc2ccccc2c1 (configuration not stated)
[1]
  inhibition: 94%
[2]
  inhibition: 86%
[3]
  IC50: 121 nM
[4]
  inhibition: 4.4%
[5]
  IC50: 483 nM
[6]
  inhibition: 69%
[7]
  IC50: 965 nM

## O=C1NCC(c2cccc(Cl)c2)C1c1ccccc1Cl (configuration not stated)
[1]
  inhibition: 41%
[2]
  inhibition: 96%
[3]
  IC50: 17.3 nM
[4]
  inhibition: 20.2%
[6]
  inhibition: 39%

## Clc1cccc2c1CC[C@H]1NC[C@H](c3ccccc3)[C@@H]21
[1]
  inhibition: 10%
[2]
  inhibition: 5%
[6]
  inhibition: 9%

## CN(C)CCCN1c2ccccc2CCc2ccc(Cl)cc21 [CLOMIPRAMINE]
[3]
  IC50: 2780 nM

## O=C1NCC(c2ccccc2Cl)C1c1ccccc1Cl (configuration not stated)
[1]
  inhibition: 33%
[2]
  inhibition: 45%
[4]
  inhibition: 6.9%
[6]
  inhibition: 20%

## O=C1NCC(c2ccccc2Cl)C1c1ccccc1 (configuration not stated)
[1]
  inhibition: 5%
[2]
  inhibition: 70%
[3]
  IC50: 2140 nM
[4]
  inhibition: 19.3%
[6]
  inhibition: 23%

## O=C1NCC(c2ccccc2Cl)C1c1ccc2ccccc2c1 (configuration not stated)
[1]
  inhibition: 89%
[2]
  inhibition: 23%
[4]
  inhibition: 4.5%
[5]
  IC50: 1380 nM
[6]
  inhibition: 56%

## O=C1NCC(c2ccccc2Cl)C1c1ccc(Cl)c(Cl)c1 (configuration not stated)
[1]
  inhibition: 90%
[2]
  inhibition: 87%
[3]
  IC50: 1730 nM
[4]
  inhibition: 6.2%
[5]
  IC50: 2520 nM
[6]
  inhibition: 26%

## CNCCC(Oc1ccccc1OC)c1ccccc1 (configuration not stated)
[4]
  inhibition: 54%

## O=C1NCC(c2ccc(Cl)cc2)C1c1ccccc1Cl (configuration not stated)
[1]
  inhibition: 74%
[2]
  inhibition: 97%
[3]
  IC50: 81.5 nM
[4]
  inhibition: 23.4%
[5]
  IC50: 3570 nM
[6]
  inhibition: 49%

## Clc1ccc2c(c1)[C@@H]1[C@@H](c3ccccc3)CN[C@@H]1CC2
[1]
  inhibition: 10%
[2]
  inhibition: 5%
[6]
  inhibition: 9%

## O=C1NCC(c2cccc(Cl)c2)C1c1ccc(Cl)c(Cl)c1 (configuration not stated)
[1]
  inhibition: 78%
[2]
  inhibition: 99%
[3]
  IC50: 172 nM
[4]
  inhibition: 40.9%
[5]
  IC50: 2740 nM
[6]
  inhibition: 71%
[7]
  IC50: 3760 nM

## O=C1NCC(c2ccccc2Cl)C1c1ccc(Cl)cc1 (configuration not stated)
[1]
  inhibition: 60%
[2]
  inhibition: 51%
[4]
  inhibition: 8.5%
[5]
  IC50: 7620 nM
[6]
  inhibition: 26%

## O=C1NCC(c2ccc(Cl)cc2)C1c1ccc2ccccc2c1 (configuration not stated)
[1]
  inhibition: 91%
[2]
  inhibition: 97%
[3]
  IC50: 160 nM
[4]
  inhibition: 26.3%
[5]
  IC50: 1190 nM
[6]
  inhibition: 79%
[7]
  IC50: 6450 nM

## O=C1NCC(c2ccc(Cl)c(Cl)c2)C1c1ccc(Cl)cc1 (configuration not stated)
[1]
  inhibition: 83%
[2]
  inhibition: 76%
[3]
  IC50: 99.6 nM
[4]
  inhibition: 50.4%
[5]
  IC50: 2030 nM
[6]
  inhibition: 90%
[7]
  IC50: 85.6 nM

## Clc1ccc2c(c1Cl)CC[C@H]1NC[C@H](c3ccccc3)[C@@H]21
[1]
  inhibition: 10%
[2]
  inhibition: 5%
[6]
  inhibition: 9%

## O=C1NCC(c2ccc(Cl)cc2)C1c1cccc(Cl)c1 (configuration not stated)
[1]
  inhibition: 72%
[2]
  inhibition: 99%
[3]
  IC50: 36.3 nM
[4]
  inhibition: 12.2%
[5]
  IC50: 3820 nM
[6]
  inhibition: 22%

## Clc1ccc2c(c1)CC[C@H]1NC[C@H](c3ccccc3)[C@@H]21
[1]
  inhibition: 10%
[2]
  inhibition: 5%
[6]
  inhibition: 9%

## O=C1NCC(c2ccc(Cl)cc2)C1c1ccc(Cl)c(Cl)c1 (configuration not stated)
[1]
  inhibition: 92%
[2]
  inhibition: 96%
[3]
  IC50: 281 nM
[4]
  inhibition: 22.7%
[5]
  IC50: 1900 nM
[6]
  inhibition: 57%

## O=C1NCC(c2ccc(Cl)c(Cl)c2)C1c1ccccc1Cl (configuration not stated)
[1]
  inhibition: 99%
[2]
  inhibition: 100%
[3]
  IC50: 8.14 nM
[4]
  inhibition: 21.9%
[5]
  IC50: 510 nM
[6]
  inhibition: 52%

## O=C1NCC(c2cccc(Cl)c2)C1c1ccccc1 (configuration not stated)
[1]
  inhibition: 26%
[2]
  inhibition: 98%
[3]
  IC50: 22.7 nM
[4]
  inhibition: 24.3%
[6]
  inhibition: 55%

## O=C1NCC(c2cccc(Cl)c2)C1c1cccc(Cl)c1 (configuration not stated)
[1]
  inhibition: 59%
[2]
  inhibition: 98%
[3]
  IC50: 38.7 nM
[4]
  inhibition: 14.3%
[6]
  inhibition: 26%

## O=C1NCC(c2ccc(Cl)c(Cl)c2)C1c1ccc(Cl)c(Cl)c1 (configuration not stated)
[1]
  inhibition: 90%
[2]
  inhibition: 85%
[3]
  IC50: 285 nM
[4]
  inhibition: 8.8%
[5]
  IC50: 990 nM
[6]
  inhibition: 42%

## O=C1NCC(c2cccc(Cl)c2)C1c1ccc(Cl)cc1 (configuration not stated)
[1]
  inhibition: 87%
[2]
  inhibition: 95%
[3]
  IC50: 33.1 nM
[4]
  inhibition: 38.4%
[5]
  IC50: 1660 nM
[6]
  inhibition: 49%
